Test results from US11510931B2, “Compositions and methods for treating ophthalmic conditions” (MEDICON PHARMACEUTICALS, INC., priority 2016, dated 2022).
Read-outs that look alike come from different tables or passages of the source.

Test: Ocular biodistribution of PS after topical eye drops in New Zealand white rabbits (HPLC)
Type: in vivo, rabbit
Conditions: New Zealand white, rabbit, topical, topical
Method: Results: The above PS formulation was administered topically as eye drops to the eyes of New Zealand white rabbits. The levels of PS in ocular tissues 1 h and 3 h later were determined by HPLC. The Table below summarizes the findings:
Results: The above PS formulation was administered topically as eye drops to the eyes of New Zealand white rabbits. The levels of PS in ocular tissues at 2 h later were determined by HPLC. The table below summarizes the findings.
Results: PS in this formulation was administered topically to the eyes of New Zealand white rabbits and its biodistribution was determined as above. The Table below summarizes the findings.
Results: PS in this formulation was administered topically as eye drops to the eyes of New Zealand white rabbits. The biodistribution of PS in ocular tissues at 3 h and 6 h was determined by HPLC. The Table below summarizes the findings.
Biodistribution of PS after topical administration: PS formulated in nanoparticles as above was administered topically as eye drops to New Zealand white rabbits. The biodistribution of PS in ocular tissues at the indicated time points post administration was determined by HPLC. The Table below summarizes the findings.
Biodistribution of PS after topical administration: PS in the formulations was administered topically as eye drops to the eyes of New Zealand white rabbits. The levels of PS in ocular tissues at 0.5 h, 1 h and 3 h were determined by HPLC. The Table below summarizes the findings.
To assess the contribution of the foregoing formulations to the PK/biodistribution of PS in the ocular tissues, a solution of PS in pure propylene glycol (PG) was studied. PG is well tolerated by the eye. A 3.5% PS solution (in PG) as eye drops was administered topically to the eyes of New Zealand white rabbits and its 1-hour biodistribution was determined by HPLC. The Table summarizes the findings.

[1] = aqueous humor, 0.4% gellan gum in-situ gel, 2.4-3% PS, read-out: PS in Aqueous humor
[2] = ciliary body, 5.4 % PS, Poloxamer 407 in-situ gel, 5.4% PS, read-out: PS in Ciliary body
[3] = conjunctiva, 5.4 % PS, Poloxamer 407 in-situ gel, 5.4% PS, read-out: PS in Conjunctiva
[4] = conjunctiva, topical eye drops, mPEG-PLA nanoparticles, read-out: PS in Conjunctiva
[5] = cornea, topical eye drops, mPEG-PLA nanoparticles, read-out: PS in Cornea
[6] = iris, 5.4 % PS, Poloxamer 407 in-situ gel, 5.4% PS, read-out: PS in Iris
[7] = iris, topical eye drops, mPEG-PLA nanoparticles, read-out: PS in Iris
[8] = lacrimal gland, topical eye drops, mPEG-PLA nanoparticles, read-out: PS in Lacrimal gland
[9] = lens, 5.4 % PS, Poloxamer 407 in-situ gel, 5.4% PS, read-out: PS in Lens
[10] = retina, 3 % PS, sodium alginate/Tween 80 in-situ gel, 3% PS, read-out: PS in Retina
[11] = retina, 5.4 % PS, Poloxamer 407 in-situ gel, 5.4% PS, read-out: PS in Retina
[12] = sclera, 5.4 % PS, Poloxamer 407 in-situ gel, 5.4% PS, read-out: PS in Sclera
[13] = sclera, topical eye drops, mPEG-PLA nanoparticles, read-out: PS in Sclera
[14] = vitreous, 5.4 % PS, Poloxamer 407 in-situ gel, 5.4% PS, read-out: PS in Vitreous

With `CCOP(=O)(OCC)OCCCCOC(=O)CC1=C(C)/C(=C/c2ccc([S+](C)[O-])cc2)c2ccc(F)cc21` (stereo not drawn) [PS, phosphosulindac] as the compound, how does the concentration at 5 h [1] read?
Its concentration at 5 h is 0 nM.

What about the concentration at 8 h [1] of the same compound?
The concentration at 8 h was 0 nM.

What about the concentration at 1 h (choroid, 3.5 % PS solution (eye drops), topical eye drops, 3.5% PS solution in propylene glycol, read-out: PS in Choroid) of the same compound?
Its concentration at 1 h is 0 µM.

What about the concentration at 6 h (choroid, 5.4 % PS, Poloxamer 407 in-situ gel, 5.4% PS, read-out: PS in Choroid) of the same compound?
The concentration at 6 h was 0 µM.

What about the concentration at 2 h (choroid, 0.5% gellan gum in-situ gel, 2.4~3% PS, read-out: PS in Choroid) of the same compound?
Its concentration at 2 h is 0 µM.

And the concentration at 3 h [2]?
The concentration at 3 h was 0 µM.

What about the concentration at 6 h [2] of the same compound?
The concentration at 6 h was 0 µM.

And the concentration at 2 h (ciliary body, 0.5% gellan gum in-situ gel, 2.4~3% PS, read-out: PS in Ciliary body)?
The concentration at 2 h was 0 µM.

And the concentration at 1 h (conjunctiva, 3.5 % PS solution (eye drops), topical eye drops, 3.5% PS solution in propylene glycol, read-out: PS in Conjunctiva)?
Its concentration at 1 h is 3.3 µM.

And the concentration at 3 h [3]?
The concentration at 3 h was 5.6 µM.

What about the concentration at 6 h [3] of the same compound?
Its concentration at 6 h is 10.7 µM.

What about the concentration at 0.5 h [4] of the same compound?
The concentration at 0.5 h was 121 µM.

And the concentration at 1 h [4]?
Its concentration at 1 h is 80.4 µM.

What about the concentration at 2 h [4] of the same compound?
Its concentration at 2 h is 16.9 µM.

And the concentration at 8 h (cornea, 3 % PS, sodium alginate/Tween 80 in-situ gel, 3% PS, read-out: PS in Cornea)?
The concentration at 8 h was 0 nM.

And the concentration at 1 h (cornea, 3.5 % PS solution (eye drops), topical eye drops, 3.5% PS solution in propylene glycol, read-out: PS in Cornea)?
The concentration at 1 h was 38.8 µM.

And the concentration at 6 h (cornea, 5.4 % PS, Poloxamer 407 in-situ gel, 5.4% PS, read-out: PS in Cornea)?
The concentration at 6 h was 13.6 µM.

What about the concentration at 0.5 h [5] of the same compound?
The concentration at 0.5 h was 89.8 µM.

What about the concentration at 1 h [5] of the same compound?
Its concentration at 1 h is 63.9 µM.

What about the concentration at 2 h [5] of the same compound?
Its concentration at 2 h is 43.5 µM.

What about the concentration at 3 h [6] of the same compound?
The concentration at 3 h was 0 µM.

What about the concentration at 6 h [6] of the same compound?
The concentration at 6 h was 0 µM.

And the concentration at 0.5 h [7]?
The concentration at 0.5 h was 2.8 µM.

What about the concentration at 1 h [7] of the same compound?
Its concentration at 1 h is 6.4 µM.

And the concentration at 2 h [7]?
Its concentration at 2 h is 1.3 µM.

What about the concentration at 2 h (iris, 0.5% gellan gum in-situ gel, 2.4~3% PS, read-out: PS in Iris) of the same compound?
Its concentration at 2 h is 0 µM.

What about the concentration at 1 h (lacrimal gland, 3.5 % PS solution (eye drops), topical eye drops, 3.5% PS solution in propylene glycol, read-out: PS in Lacrimal gland) of the same compound?
The concentration at 1 h was 0.1 µM.

What about the concentration at 0.5 h [8] of the same compound?
Its concentration at 0.5 h is 7.5 µM.

What about the concentration at 1 h [8] of the same compound?
The concentration at 1 h was 3.5 µM.

And the concentration at 2 h [8]?
The concentration at 2 h was 0.6 µM.

And the concentration at 2 h (lacrimal gland, 0.5% gellan gum in-situ gel, 2.4~3% PS, read-out: PS in Lacrimal Gland)?
The concentration at 2 h was 0 µM.

What about the concentration at 3 h [9] of the same compound?
Its concentration at 3 h is 0 µM.

And the concentration at 6 h [9]?
Its concentration at 6 h is 0 µM.

What about the concentration at 2 h (lens, 0.5% gellan gum in-situ gel, 2.4~3% PS, read-out: PS in Lens) of the same compound?
The concentration at 2 h was 0 µM.

And the concentration at 1 h [10]?
Its concentration at 1 h is 0 µM.

What about the concentration at 3 h [10] of the same compound?
The concentration at 3 h was 0 µM.

What about the concentration at 5 h [10] of the same compound?
The concentration at 5 h was 0 nM.

What about the concentration at 8 h [10] of the same compound?
The concentration at 8 h was 0 nM.

What about the concentration at 1 h (retina, 3.5 % PS solution (eye drops), topical eye drops, 3.5% PS solution in propylene glycol, read-out: PS in Retina) of the same compound?
The concentration at 1 h was 0 µM.

And the concentration at 3 h [11]?
The concentration at 3 h was 0 µM.

What about the concentration at 6 h [11] of the same compound?
Its concentration at 6 h is 0 µM.

And the concentration at 2 h (retina, 0.5% gellan gum in-situ gel, 2.4~3% PS, read-out: PS in Retina)?
Its concentration at 2 h is 0 µM.

And the concentration at 1 h (sclera, 3.5 % PS solution (eye drops), topical eye drops, 3.5% PS solution in propylene glycol, read-out: PS in Sclera)?
Its concentration at 1 h is 0 µM.

And the concentration at 3 h [12]?
The concentration at 3 h was 0 µM.

What about the concentration at 6 h [12] of the same compound?
The concentration at 6 h was 0 µM.

What about the concentration at 0.5 h [13] of the same compound?
The concentration at 0.5 h was 32.1 µM.

What about the concentration at 1 h [13] of the same compound?
The concentration at 1 h was 17.1 µM.

What about the concentration at 2 h [13] of the same compound?
Its concentration at 2 h is 4.7 µM.

What about the concentration at 2 h (sclera, 0.5% gellan gum in-situ gel, 2.4~3% PS, read-out: PS in Sclera) of the same compound?
The concentration at 2 h was 0 µM.

What about the concentration at 1 h (vitreous body, 3.5 % PS solution (eye drops), topical eye drops, 3.5% PS solution in propylene glycol, read-out: PS in Vitreous body) of the same compound?
Its concentration at 1 h is 0 µM.

And the concentration at 3 h (vitreous body, 3.5 % PS, topical eye drops, 3.5% PS/16% Vitamin E TPGS/mannitol/boric acid, read-out: PS in Vitreous body)?
The concentration at 3 h was 0 µM.

And the concentration at 3 h [14]?
Its concentration at 3 h is 0 µM.

What about the concentration at 6 h [14] of the same compound?
The concentration at 6 h was 0 µM.

What about the concentration at 2 h (vitreous, 0.5% gellan gum in-situ gel, 2.4~3% PS, read-out: PS in Vitreous) of the same compound?
The concentration at 2 h was 0 µM.
